Data: patent US9890153B2, “Substituted 1H-pyrrolo [2, 3-b] pyridine and 1H-pyrazolo [3, 4-b] pyridine derivatives as salt inducible kinase 2 (SIK2) inhibitors” (Arrien Pharmaceuticals LLC, priority 2012, dated 2018)
pIC50: −log10 of the molar value.

What was measured:
Type in all cases: biochemical
[1] = target: T1, SIK3 (QSK) (SEQ ID NO: 24) (Homo sapiens, UniProt Q9Y2K2); test: Protein kinase assay, SIK3; details: read-out: SIK3 (QSK) (SEQ ID NO: 24) kinase inhibition result
T1 construct: Reaction Biology Corporation (assay service, HotSpot panel)
T1 sequence (Q9Y2K2 whole entry): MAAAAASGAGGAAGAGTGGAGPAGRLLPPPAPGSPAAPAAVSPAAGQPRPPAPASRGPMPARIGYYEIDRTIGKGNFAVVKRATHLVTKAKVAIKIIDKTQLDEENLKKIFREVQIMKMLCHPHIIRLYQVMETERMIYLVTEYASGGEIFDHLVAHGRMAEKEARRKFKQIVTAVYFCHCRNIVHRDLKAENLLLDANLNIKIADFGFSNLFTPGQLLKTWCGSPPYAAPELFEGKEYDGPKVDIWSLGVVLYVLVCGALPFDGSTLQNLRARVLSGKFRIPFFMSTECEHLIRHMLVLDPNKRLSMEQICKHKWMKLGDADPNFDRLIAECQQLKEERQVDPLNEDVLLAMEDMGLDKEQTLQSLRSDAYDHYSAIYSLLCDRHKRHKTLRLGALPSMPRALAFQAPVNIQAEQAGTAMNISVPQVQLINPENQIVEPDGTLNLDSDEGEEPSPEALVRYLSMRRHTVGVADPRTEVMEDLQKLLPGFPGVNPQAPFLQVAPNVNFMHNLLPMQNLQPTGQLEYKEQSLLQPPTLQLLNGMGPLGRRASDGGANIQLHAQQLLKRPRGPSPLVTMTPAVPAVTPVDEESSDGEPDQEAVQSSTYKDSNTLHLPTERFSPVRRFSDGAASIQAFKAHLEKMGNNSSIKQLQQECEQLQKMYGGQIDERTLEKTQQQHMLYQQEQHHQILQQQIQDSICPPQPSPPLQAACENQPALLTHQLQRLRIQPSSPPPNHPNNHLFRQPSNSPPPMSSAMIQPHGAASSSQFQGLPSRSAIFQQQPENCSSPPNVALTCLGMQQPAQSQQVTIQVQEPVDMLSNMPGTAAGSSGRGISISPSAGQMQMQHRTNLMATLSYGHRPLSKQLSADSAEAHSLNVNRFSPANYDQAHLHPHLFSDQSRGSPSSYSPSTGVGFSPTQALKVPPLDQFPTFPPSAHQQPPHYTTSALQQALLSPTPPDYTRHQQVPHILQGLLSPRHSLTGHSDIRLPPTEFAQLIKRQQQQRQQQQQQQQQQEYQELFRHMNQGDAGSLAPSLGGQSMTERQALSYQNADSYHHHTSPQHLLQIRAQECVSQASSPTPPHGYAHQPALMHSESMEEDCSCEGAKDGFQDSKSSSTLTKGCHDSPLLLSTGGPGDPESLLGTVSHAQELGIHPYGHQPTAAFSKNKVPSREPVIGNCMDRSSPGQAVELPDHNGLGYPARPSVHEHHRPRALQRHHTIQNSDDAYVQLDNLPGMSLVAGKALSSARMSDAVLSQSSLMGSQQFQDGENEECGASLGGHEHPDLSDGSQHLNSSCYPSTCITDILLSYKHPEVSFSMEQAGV
Protocol: (§1) Briefly, specific kinase/substrate pairs along with required cofactors were prepared in reaction buffer; 20 mM Hepes (pH 7.5), 10 mMmgCl2, 1 mM EGTA, 0.02% Brij35, 0.02 mg/ml BSA, 0.1 mM Na3VO4, 2 mM DTT, 1% DMSO. Compounds were delivered into the reaction, followed ˜20 min later by addition of a mixture of ATP (Sigma) and 33P ATP (PerkinElmer) to a final concentration of 10 μM. […] IC50 values and curve fits were obtained using Prism (GraphPad Software). Kinome tree representations were prepared using Kinome Mapper (http://www.reactionbiology.com/apps/kinome/mapper/LaunchKinome.htm).

[2] = target: SIK2 (QIK) (SEQ ID NO: 11) (Homo sapiens, UniProt Q9H0K1); test: SIK2 kinase assay (radiometric, 10 μM ATP); details: read-out: SIK2 (QIK) (SEQ ID NO: 11) kinase inhibition result
SIK2 (QIK) (SEQ ID NO: 11), sequence (Q9H0K1 whole entry): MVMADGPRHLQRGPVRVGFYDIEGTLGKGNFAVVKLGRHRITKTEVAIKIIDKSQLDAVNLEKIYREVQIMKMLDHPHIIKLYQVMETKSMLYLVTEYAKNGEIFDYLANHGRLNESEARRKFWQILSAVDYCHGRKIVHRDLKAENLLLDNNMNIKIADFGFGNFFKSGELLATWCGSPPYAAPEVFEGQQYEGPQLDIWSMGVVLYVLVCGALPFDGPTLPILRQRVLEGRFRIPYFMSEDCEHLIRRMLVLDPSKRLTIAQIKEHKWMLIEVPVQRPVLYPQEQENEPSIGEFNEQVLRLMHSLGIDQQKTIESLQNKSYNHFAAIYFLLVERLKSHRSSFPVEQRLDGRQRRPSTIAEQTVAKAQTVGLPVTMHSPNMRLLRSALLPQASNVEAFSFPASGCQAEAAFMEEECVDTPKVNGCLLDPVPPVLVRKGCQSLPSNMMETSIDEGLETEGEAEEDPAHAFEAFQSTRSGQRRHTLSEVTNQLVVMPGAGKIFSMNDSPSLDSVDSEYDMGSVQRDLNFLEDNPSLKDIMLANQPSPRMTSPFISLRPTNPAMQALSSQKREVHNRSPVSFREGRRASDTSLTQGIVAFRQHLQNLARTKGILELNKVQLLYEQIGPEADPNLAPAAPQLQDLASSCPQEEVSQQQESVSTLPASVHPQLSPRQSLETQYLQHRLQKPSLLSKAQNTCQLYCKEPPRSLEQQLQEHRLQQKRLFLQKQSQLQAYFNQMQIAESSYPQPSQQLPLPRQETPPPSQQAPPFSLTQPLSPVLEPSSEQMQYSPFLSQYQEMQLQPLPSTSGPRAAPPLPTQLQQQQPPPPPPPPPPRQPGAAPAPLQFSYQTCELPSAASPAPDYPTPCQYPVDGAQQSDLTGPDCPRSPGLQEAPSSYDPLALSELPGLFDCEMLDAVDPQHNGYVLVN
Protocol: Procedure: Enzyme was incubated with substrate peptide in reaction buffer in the presence and absence of test compounds or Staurosporine. All additions were done on ice, followed by the addition of ATP mix. Wells were uniformly mixed using an Eppendorff plate shaker and incubated at 30° C. for 20 min, and stopped by the addition of 5 μL of 3% phosphoric acid. Volume was increased to 100 μL by adding 0.8% phosphoric acid which was then transferred to PC filter mats (Millipore), pre-equilibrated with 70% ethanol and water. Plates were washed thrice with 100 μL 0.8% phosphoric acid and dried for an hour at 60° C.

SIK1 (SEQ ID NO: 10) = target: T2, SIK1 (SEQ ID NO: 10) (Homo sapiens, UniProt P57059); test: Protein kinase assay, SIK1; details: read-out: SIK1 (SEQ ID NO: 10) kinase inhibition result
T2 construct: Reaction Biology Corporation (assay service, HotSpot panel)
T2 sequence (P57059 whole entry): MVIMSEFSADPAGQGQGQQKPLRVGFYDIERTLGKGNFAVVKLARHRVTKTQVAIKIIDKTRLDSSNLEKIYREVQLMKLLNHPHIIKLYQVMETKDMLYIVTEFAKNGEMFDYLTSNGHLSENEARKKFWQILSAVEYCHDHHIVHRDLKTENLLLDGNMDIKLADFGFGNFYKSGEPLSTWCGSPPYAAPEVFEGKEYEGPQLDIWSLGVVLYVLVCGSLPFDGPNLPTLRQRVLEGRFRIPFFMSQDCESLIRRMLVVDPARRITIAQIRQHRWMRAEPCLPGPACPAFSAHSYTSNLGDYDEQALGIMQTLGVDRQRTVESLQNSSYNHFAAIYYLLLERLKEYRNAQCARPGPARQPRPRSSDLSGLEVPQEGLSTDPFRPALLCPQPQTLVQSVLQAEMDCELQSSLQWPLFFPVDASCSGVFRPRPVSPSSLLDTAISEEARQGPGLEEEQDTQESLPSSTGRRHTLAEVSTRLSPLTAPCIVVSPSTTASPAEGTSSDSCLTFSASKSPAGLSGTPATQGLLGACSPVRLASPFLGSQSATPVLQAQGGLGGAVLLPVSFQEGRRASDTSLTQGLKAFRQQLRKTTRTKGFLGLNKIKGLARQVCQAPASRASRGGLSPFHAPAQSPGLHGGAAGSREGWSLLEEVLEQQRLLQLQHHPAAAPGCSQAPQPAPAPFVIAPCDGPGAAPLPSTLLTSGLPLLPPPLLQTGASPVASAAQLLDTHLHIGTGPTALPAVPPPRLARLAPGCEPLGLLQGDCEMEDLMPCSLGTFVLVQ
Protocol: as §1

| SMILES | pIC50 [1] | pIC50 [2] | pIC50 (SIK1 (SEQ ID NO: 10)) |
| --- | --- | --- | --- |
| FC1(F)Oc2ccc(-c3c[nH]c4ncc(-c5cnc(N6CCOCC6)s5)cc34)cc2O1 [Example 201, 4-(5-(3-(2,2-difluorobenzo[d][1,3]dioxol-5-yl)-1H-pyrrolo[2,3-b]pyridin-5-yl)thiazol-2-yl)morpholine] | < 6.00 | < 6.00 | < 6.00 |
| COc1c(F)cccc1-c1c[nH]c2ncc(-c3ccc(CN4CCCC4)s3)cc12 [Example 174, 3-(3-fluoro-2-methoxyphenyl)-5-(5-(pyrrolidin-1-ylmethyl)thiophen-2-yl)-1H-pyrrolo[2,3-b]pyridine] | < 7.00 | > 7.00 | < 6.00 |
| COc1c(F)cccc1-c1c[nH]c2ncc(-c3ccc(CN4CCCCC4)s3)cc12 [Example 175, 3-(3-fluoro-2-methoxyphenyl)-5-(5-(piperidin-1-ylmethyl)thiophen-2-yl)-1H-pyrrolo[2,3-b]pyridine] | < 7.00 | > 7.00 | < 6.00 |
| CS(=O)(=O)N1CCC(n2cc(-c3cnc4[nH]cc(-c5ccc6c(c5)OC(F)(F)O6)c4c3)cn2)CC1 [Example 221, 3-(2,2-difluorobenzo[d][1,3]dioxol-5-yl)-5-(1-(1-(methylsulfonyl)piperidin-4-yl)-1H-pyrazol-4-yl)-1H-pyrrolo[2,3-b]pyridine] | < 6.00 | < 6.00 | < 6.00 |
| CCCS(=O)(=O)N1CCC(n2cc(-c3cnc4[nH]cc(-c5ccc6c(c5)OC(F)(F)O6)c4c3)cn2)CC1 [Example 223, 3-(2,2-difluorobenzo[d][1,3]dioxol-5-yl)-5-(1-(1-(propylsulfonyl)piperidin-4-yl)-1H-pyrazol-4-yl)-1H-pyrrolo[2,3-b]pyridine] | < 6.00 | < 6.00 | < 6.00 |
| O=S(=O)(c1ccc(-c2c[nH]c3nccc(-c4ccsc4)c23)cc1)N1CCCC1 [Example 98, 3-(4-(pyrrolidin-1-ylsulfonyl)phenyl)-4-(thiophen-3-yl)-1H-pyrrolo[2,3-b]pyridine] | < 6.00 | < 6.00 | < 6.00 |
| COc1c(F)cccc1-c1c[nH]c2nccc(-c3ccsc3)c12 [Example 120, 3-(3-fluoro-2-methoxyphenyl)-4-(thiophen-3-yl)-1H-pyrrolo[2,3-b]pyridine] | < 7.00 | > 7.00 | < 7.00 |
| FC1(F)CN(c2c[nH]c3ncc(-c4ccsc4)cc23)C1 [Example 136, 3-(3,3-difluoroazetidin-1-yl)-5-(thiophen-3-yl)-1H-pyrrolo[2,3-b]pyridine] | < 7.00 | > 7.00 | < 7.00 |
| COc1c(F)cc(F)cc1-c1c[nH]c2ncc(-c3ccc(CN4CCCC4)s3)cc12 [Example 177, 3-(3,5-difluoro-2-methoxyphenyl)-5-(5-(pyrrolidin-1-ylmethyl)thiophen-2-yl)-1H-pyrrolo[2,3-b]pyridine] | < 7.00 | > 7.00 | < 6.00 |
| Cc1ccc(-c2ccnc3[nH]cc(-c4cccc(F)c4Cl)c23)o1 [Example 116, 3-(2-chloro-3-fluorophenyl)-4-(5-methylfuran-2-yl)-1H-pyrrolo[2,3-b]pyridine] | < 6.00 | < 7.00 | < 6.00 |
| COc1c(F)cc(F)cc1-c1c[nH]c2ncc(-c3cnc(N4CCOCC4)s3)cc12 [Example 179, 4-(5-(3-(3,5-difluoro-2-methoxyphenyl)-1H-pyrrolo[2,3-b]pyridin-5-yl)thiazol-2-yl)morpholine] | < 7.00 | > 7.00 | < 6.00 |
| Oc1c(F)cc(F)cc1-c1c[nH]c2ncc(-c3ccsc3)cc12 [Example 124, 2,4-difluoro-6-(5-(thiophen-3-yl)-1H-pyrrolo[2,3-b]pyridin-3-yl)phenol] | < 7.00 | < 7.00 | < 7.00 |
| CCS(=O)(=O)N1CCC(n2cc(-c3cnc4[nH]cc(-c5ccc6c(c5)OC(F)(F)O6)c4c3)cn2)CC1 [Example 222, 3-(2,2-difluorobenzo[d][1,3]dioxol-5-yl)-5-(1-(1-(ethylsulfonyl)piperidin-4-yl)-1H-pyrazol-4-yl)-1H-pyrrolo[2,3-b]pyridine] | < 6.00 | < 6.00 | < 6.00 |
| Fc1ccc(-c2n[nH]c3nccc(-c4ccsc4)c23)c(F)c1 [Example 2, 3-(2,4-difluorophenyl)-4-(thiophen-3-yl)-1H-pyrazolo[3,4-b]pyridine] | < 6.00 | < 7.00 | < 6.00 |
| FC1(F)Oc2cccc(-c3c[nH]c4ncc(-c5ccc(CN6CCCCC6)s5)cc34)c2O1 [Example 198, 3-(2,2-difluorobenzo[d][1,3]dioxol-4-yl)-5-(5-(piperidin-1-ylmethyl)thiophen-2-yl)-1H-pyrrolo[2,3-b]pyridine] | > 7.00 | > 7.00 | < 7.00 |

More lines, now with the values ahead:

| pIC50 [1] | pIC50 [2] | pIC50 (SIK1 (SEQ ID NO: 10)) | SMILES |
| --- | --- | --- | --- |
| > 7.00 | > 7.00 | < 7.00 | OCCN1CCC(n2cc(-c3cnc4[nH]cc(-c5ccc6c(c5)OC(F)(F)O6)c4c3)cn2)CC1 [Example 227, 2-(4-(4-(3-(2,2-difluorobenzo[d][1,3]dioxol-5-yl)-1H-pyrrolo[2,3-b]pyridin-5-yl)-1H-pyrazol-1-yl)piperidin-1-yl)ethanol] |
| > 7.00 | > 7.00 | < 7.00 | CN(C(C)(C)C)S(=O)(=O)c1cccc(-c2cnc3[nH]cc(-c4cccc5c4OC(F)(F)O5)c3c2)c1 [Example 196, N-(tertbutyl)-3-(3-(2,2-difluorobenzo[d][1,3]dioxol-4-yl)-1H-pyrrolo[2,3-b]pyridin-5-yl)-N-methylbenzene-sulfonamide] |
| > 7.00 | > 7.00 | < 7.00 | COc1c(F)cc(F)cc1-c1c[nH]c2ncc(-c3cnn(C4CCN(CCO)CC4)c3)cc12 [Example 226, 2-(4-(4-(3-(3,5-difluoro-2-methoxyphenyl)-1H-pyrrolo[2,3-b]pyridin-5-yl)-1H-pyrazol-1-yl)piperidin-1-yl)ethanol] |
| > 7.00 | > 7.00 | < 7.00 | O=C(c1c(F)cccc1F)c1c[nH]c2ncc(-c3cnn(C4CCNCC4)c3)cc12 [Example 210, (2,6-difluorophenyl)(5-(1-(piperidin-4-yl)-1H-pyrazol-4-yl)-1H-pyrrolo[2,3-b]pyridin-3-yl)methanone] |
| > 7.00 | > 7.00 | < 7.00 | COc1c(F)cc(F)cc1-c1c[nH]c2ncc(-c3csc(N4CCOCC4)n3)cc12 [Example 208, 4-(4-(3-(3,5-difluoro-2-methoxyphenyl)-1H-pyrrolo[2,3-b]pyridin-5-yl)thiazol-2-yl)morpholine] |
| > 7.00 | > 7.00 | < 7.00 | O=C(c1c(F)cccc1F)c1c[nH]c2ncc(-c3cnc(N4CCOCC4)s3)cc12 [Example 213, (2,6-difluorophenyl)(5-(2-morpholinothiazol-5-yl)-1H-pyrrolo[2,3-b]pyridin-3-yl)methanone] |
| > 7.00 | > 7.00 | < 7.00 | CN1CCN(S(=O)(=O)n2cc(-c3cnc4[nH]cc(-c5ccc6c(c5)OC(F)(F)O6)c4c3)cn2)CC1 [Example 219, 3-(2,2-difluorobenzo[d][1,3]dioxol-5-yl)-5-(1-((4-methylpiperazin-1-yl)sulfonyl)-1H-pyrazol-4-yl)-1H-pyrrolo[2,3-b]pyridine] |
